Experimental data from PubChem BioAssay (NCI).
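Exposure lasted 48 hours, with cells grown in 96-well plates and compounds tested at five concentrations. TGI: total growth inhibition.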

Experiments:
Experiment in all cases: inhibition of tumour cell growth, NCI panel, 48 h
MOLT-4 leukemia = system: MOLT-4 leukemia
HOP-92 NSCLC = system: HOP-92 NSCLC
SK-MEL-5 melanoma = system: SK-MEL-5 melanoma
COLO 205 colon = system: COLO 205 colon
T-47D breast = system: T-47D breast
SK-MEL-28 melanoma = system: SK-MEL-28 melanoma
OVCAR-3 ovarian = system: OVCAR-3 ovarian
IGROV1 ovarian = system: IGROV1 ovarian
K-562 leukemia = system: K-562 leukemia
MALME-3M melanoma = system: MALME-3M melanoma
UO-31 renal = system: UO-31 renal
NCI-H23 lung = system: NCI-H23 lung
SN12C renal = system: SN12C renal
HCT-116 colon = system: HCT-116 colon
A549 NSCLC = system: A549 NSCLC
ACHN renal = system: ACHN renal
786-0 renal = system: 786-0 renal
TK-10 renal = system: TK-10 renal
MDA-MB-435 = system: MDA-MB-435
RXF 393 renal = system: RXF 393 renal
KM12 colon = system: KM12 colon
PC-3 prostate = system: PC-3 prostate
HT29 colon = system: HT29 colon
SK-MEL-2 melanoma = system: SK-MEL-2 melanoma
LOX IMVI melanoma = system: LOX IMVI melanoma
OVCAR-8 ovarian = system: OVCAR-8 ovarian
HCT-15 colon = system: HCT-15 colon
SK-OV-3 ovarian = system: SK-OV-3 ovarian
RPMI-8226 leukemia = system: RPMI-8226 leukemia
UACC-257 melanoma = system: UACC-257 melanoma
U251 CNS = system: U251 CNS
UACC-62 melanoma = system: UACC-62 melanoma
NCI-H226 lung = system: NCI-H226 lung
OVCAR-4 ovarian = system: OVCAR-4 ovarian
CAKI-1 renal = system: CAKI-1 renal
NCI/ADR-RES ovarian = system: NCI/ADR-RES ovarian
A498 renal = system: A498 renal
SR leukemia = system: SR leukemia
BT-549 breast = system: BT-549 breast
SF-268 CNS = system: SF-268 CNS
SF-295 CNS = system: SF-295 CNS
DU-145 prostate = system: DU-145 prostate
HS 578T breast = system: HS 578T breast
HOP-62 NSCLC = system: HOP-62 NSCLC
MDA-MB-231 breast = system: MDA-MB-231 breast
EKVX NSCLC = system: EKVX NSCLC
NCI-H522 lung = system: NCI-H522 lung
SNB-75 CNS = system: SNB-75 CNS
NCI-H460 lung = system: NCI-H460 lung
M14 melanoma = system: M14 melanoma
HCC-2998 colon = system: HCC-2998 colon
CCRF-CEM leukemia = system: CCRF-CEM leukemia
SW-620 colon = system: SW-620 colon
OVCAR-5 ovarian = system: OVCAR-5 ovarian
MDA-N = system: MDA-N
SNB-19 CNS = system: SNB-19 CNS

Measured: TGI

O=C1Nc2ccccc2C1S(=O)(=O)c1ccccc1 (stereo unspecified)
> 100 µM: MOLT-4 leukemia | HOP-92 NSCLC | SK-MEL-5 melanoma | COLO 205 colon | T-47D breast | SK-MEL-28 melanoma | OVCAR-3 ovarian | IGROV1 ovarian | K-562 leukemia | MALME-3M melanoma | UO-31 renal | NCI-H23 lung | SN12C renal | HCT-116 colon | A549 NSCLC | ACHN renal | 786-0 renal | TK-10 renal | MDA-MB-435 | RXF 393 renal | KM12 colon | PC-3 prostate | HT29 colon | SK-MEL-2 melanoma | LOX IMVI melanoma | OVCAR-8 ovarian | HCT-15 colon | SK-OV-3 ovarian | RPMI-8226 leukemia | UACC-257 melanoma | U251 CNS | UACC-62 melanoma | NCI-H226 lung | OVCAR-4 ovarian | CAKI-1 renal | NCI/ADR-RES ovarian | A498 renal | SR leukemia | BT-549 breast | SF-268 CNS | SF-295 CNS | DU-145 prostate | HS 578T breast | HOP-62 NSCLC | MDA-MB-231 breast | EKVX NSCLC | NCI-H522 lung | SNB-75 CNS | NCI-H460 lung | M14 melanoma | HCC-2998 colon | CCRF-CEM leukemia | SW-620 colon | OVCAR-5 ovarian | MDA-N | SNB-19 CNS
